In patent US9873709B2 (priority 2013, dated 2018) one finds IC50 data, which are given here for 22 compounds.

In experiment [1] the test system is JAK1-dependent STAT6 phosphorylation downstream of IL-13 stimulation in BEAS-2B human bronchial epithelial cells. As to the kind of experiment: cells. To be noted: read-out: IL13-pSTAT6 BEASB2B IC50.
Method: Inhibitor potency (EC50) was determined in cell-based assays designed to measure JAK1 dependent STAT phosphorylation.
Prior to use in the assays, TF-1 cells were starved of GM-CSF overnight in OptiMEM medium (Life Technologies, Grand Island, N.Y.) supplemented with 0.5% charcoal/dextran stripped fetal bovine serum (FBS), 0.1 mM non-essential amino acids (NEAA), and 1 mM sodium pyruvate. The assays were run in 384-well plates in serum-free OptiMEM medium using 300,000 cells per well. In a second assay approach, BEAS-2B human bronchial epithelial cells obtained from ATCC were plated at 100,000 cells per well of a 96-well plate one day prior to the experiment. The BEAS-2B assay was run in complete growth medium (bronchial epithelial basal medium plus bulletkit; Lonza; Basel, Switzerland).
Test compounds were serially diluted 1:2 in DMSO and then diluted 1:50 in medium just before use. Diluted compounds were added to the cells, for a final DMSO concentration of 0.2%, and incubated for 30 min (for the TF-1 assay) or 1 hr (for the BEAS-2B assay) at 37° C. Then, cells were stimulated with human recombinant cytokine at their respective EC90 concentrations, as previously determined for each individual lot. […] The resultant samples were frozen in the plates at −80° C. Compound mediated inhibition of STAT6 phosphorylation was measured in the cell lysates using MesoScale Discovery (MSD) technology (Gaithersburg, Md.).
For experiment [2], the system named is JAK1-dependent STAT6 phosphorylation downstream of IL-13 stimulation in TF-1 human erythroleukemia cells. As to the kind of experiment: cells. The conditions noted are these: TF-1, read-out: IL-13-pSTAT6 IC50.

`C[C@H]1CN(C2CCN(C(=O)c3ccc(Nc4nc5c(N6CCC(CO)(c7ccc(Cl)cc7)CC6)cccn5n4)cc3)CC2)C[C@H](C)O1` [Example 1-281, [4-[[8-[4-(4-chlorophenyl)-4-(hydroxymethyl)-1-piperidyl]-[1,2,4]triazolo[1,5-a]pyridin-2-yl]amino]phenyl]-[4-[(2S,6S)-2,6-dimethylmorpholin-4-yl]-1-piperidyl]methanone]: the values for the IC50 in experiment [1] and in experiment [2] were 134 nM and 70.2 nM, respectively.

`C[C@@H]1CN(C2CCN(C(=O)c3ccc(Nc4nc5c(N6CCC(CO)(c7ccc(Cl)cc7)CC6)cccn5n4)cc3)CC2)C[C@H](C)O1` [Example 1-282, [4-[[8-[4-(4-chlorophenyl)-4-(hydroxymethyl)-1-piperidyl]-[1,2,4]triazolo[1,5-a]pyridin-2-yl]amino]phenyl]-[4-[(2R,6S)-2,6-dimethylmorpholin-4-yl]-1-piperidyl]methanone]: the IC50 in experiment [1] worked out at 55.6 nM; in experiment [2] it was 42.6 nM.

On to `CC(C)(CNC(=O)c1ccc(Nc2nc3c(N4CCC(CO)(c5ccc(Cl)cc5)CC4)cccn3n2)cc1)N1CCOCC1` [Example 1-285, 4-[[8-[4-(4-chlorophenyl)-4-(hydroxymethyl)-1-piperidyl]-[1,2,4]triazolo[1,5-a]pyridin-2-yl]amino]-N-(2-methyl-2-morpholino-propyl)benzamide], for which the IC50 in experiment [1] turned out to be 57.6 nM; in experiment [2], 22.1 nM.

For `CCN(Cc1ccncc1)C(=O)c1ccc(Nc2nc3c(N4CCC(CO)(c5ccc(Cl)cc5)CC4)cccn3n2)cc1` [Example 1-287, 4-[[8-[4-(4-chlorophenyl)-4-(hydroxymethyl)-1-piperidyl]-[1,2,4]triazolo[1,5-a]pyridin-2-yl]amino]-N-ethyl-N-(4-pyridylmethyl)benzamide], the IC50 in experiment [1] amounted to 36.4 nM; in experiment [2], 22.5 nM.

For `O=C(c1ccc(Nc2nc3c(N4CCC(CO)(c5ccc(Cl)cc5)CC4)cccn3n2)cc1)N1CCCC1c1ccncc1` (centres unmarked) [Example 1-288, [4-[[8-[4-(4-chlorophenyl)-4-(hydroxymethyl)-1-piperidyl]-[1,2,4]triazolo[1,5-a]pyridin-2-yl]amino]phenyl]-[2-(4-pyridyl)pyrrolidin-1-yl]methanone], the IC50 came to 67.7 nM in experiment [1] and 28 nM in experiment [2].

For the compound `CN1CC[C@H]2CN(C(=O)c3ccc(Nc4nc5c(C6=CCN(C(=O)CCC(F)(F)F)CC6)cccn5n4)cc3)C[C@H]21` [Example 2-38, 1-[4-[2-[4-[(3aS,6aS)-1-methyl-2,3,3a,4,6,6a-hexahydropyrrolo[3,4-b]pyrrole-5-carbonyl]anilino]-[1,2,4]triazolo[1,5-a]pyridin-8-yl]-3,6-dihydro-2H-pyridin-1-yl]-4,4,4-trifluoro-butan-1-one], the IC50 in experiment [1] was determined as 28.6 nM; in experiment [2] it was 2.9 nM.

Consider `CN1CCCC12CN(C(=O)c1ccc(Nc3nc4c(C5=CCN(C(=O)CCC(F)(F)F)CC5)cccn4n3)cc1)C2` [Example 2-40, 4,4,4-trifluoro-1-[4-[2-[4-(5-methyl-2,5-diazaspiro[3.4]octane-2-carbonyl)anilino]-[1,2,4]triazolo[1,5-a]pyridin-8-yl]-3,6-dihydro-2H-pyridin-1-yl]butan-1-one], for which the half-inhibitory concentration (IC50) in experiment [1] is 18.7 nM; in experiment [2], 3.5 nM.

With `O=C(NC1CCN(C2CCCC2)CC1)c1ccc(Nc2nc3c(C4=CCN(C(=O)CCC(F)(F)F)CC4)cccn3n2)cc1` [Example 2-49, N-(1-cyclopentyl-4-piperidyl)-4-[[8-[1-(4,4,4-trifluorobutanoyl)-3,6-dihydro-2H-pyridin-4-yl]-[1,2,4]triazolo[1,5-a]pyridin-2-yl]amino]benzamide], the figures for the IC50 in experiment [1] and in experiment [2] were 10.2 nM and 3.8 nM, respectively.

`CCOC(=O)N1CC=C(c2cccn3nc(Nc4ccc(C(=O)NCCCN5CCOCC5)cc4)nc23)CC1` [Example 2-56, ethyl 4-[2-[4-(3-morpholinopropylcarbamoyl)anilino]-[1,2,4]triazolo[1,5-a]pyridin-8-yl]-3,6-dihydro-2H-pyridine-1-carboxylate]: the IC50 was 59.4 nM in experiment [1] and 6.7 nM in experiment [2].

In the case of `CC1CCCN(CCNC(=O)c2ccc(Nc3nc4c(C5=CCN(C(=O)CCC(F)(F)F)CC5)cccn4n3)cc2)C1` (centres unmarked) [Example 2-101, N-[2-(3-methyl-1-piperidyl)ethyl]-4-[[8-[1-(4,4,4-trifluorobutanoyl)-3,6-dihydro-2H-pyridin-4-yl]-[1,2,4]triazolo[1,5-a]pyridin-2-yl]amino]benzamide], the IC50 in experiment [1] turned out to be 31.8 nM; in experiment [2] it was 3.5 nM.

Consider `Cc1ccc(CNC(=O)c2ccc(Nc3nc4c(C5=CCN(C(=O)CCC(F)(F)F)CC5)cccn4n3)cc2)cn1` [Example 2-148, N-[(6-methyl-3-pyridyl)methyl]-4-[[8-[1-(4,4,4-trifluorobutanoyl)-3,6-dihydro-2H-pyridin-4-yl]-[1,2,4]triazolo[1,5-a]pyridin-2-yl]amino]benzamide], for which the IC50 in experiment [1] was 15 nM; in experiment [2], 3.2 nM.

As to `O=C(CCC(F)(F)F)N1CC=C(c2cccn3nc(Nc4ccc(C(=O)N5CCOC(c6ccccn6)C5)cc4)nc23)CC1` (centres unmarked) [Example 2-154, 4,4,4-trifluoro-1-[4-[2-[4-[2-(2-pyridyl)morpholine-4-carbonyl]anilino]-[1,2,4]triazolo[1,5-a]pyridin-8-yl]-3,6-dihydro-2H-pyridin-1-yl]butan-1-one], the IC50 in experiment [1] was found to be 80.6 nM; in experiment [2] it was 4.5 nM.

For `O=C(CCC(F)(F)F)N1CC=C(c2cccn3nc(Nc4ccc(C(=O)N5CCC(N6CCOCC6)CC5)cc4)nc23)CC1` [Example 2-210, 4,4,4-trifluoro-1-[4-[2-[4-(4-morpholinopiperidine-1-carbonyl)anilino]-[1,2,4]triazolo[1,5-a]pyridin-8-yl]-3,6-dihydro-2H-pyridin-1-yl]butan-1-one], the figures for the IC50 in experiment [1] and in experiment [2] were 45.6 nM and 6.9 nM, respectively.

For `CC(C)(CNC(=O)c1ccc(Nc2nc3c(C4=CCN(C(=O)CCC(F)(F)F)CC4)cccn3n2)cc1)N1CCOCC1` [Example 2-213, N-(2-methyl-2-morpholino-propyl)-4-[[8-[1-(4,4,4-trifluorobutanoyl)-3,6-dihydro-2H-pyridin-4-yl]-[1,2,4]triazolo[1,5-a]pyridin-2-yl]amino]benzamide], the IC50 stood at 20.6 nM in experiment [1] and 5.6 nM in experiment [2].

Regarding `CCN(Cc1ccncc1)C(=O)c1ccc(Nc2nc3c(C4=CCN(C(=O)CCC(F)(F)F)CC4)cccn3n2)cc1` [Example 2-219, N-ethyl-N-(4-pyridylmethyl)-4-[[8-[1-(4,4,4-trifluorobutanoyl)-3,6-dihydro-2H-pyridin-4-yl]-[1,2,4]triazolo[1,5-a]pyridin-2-yl]amino]benzamide], the IC50 in experiment [1] is 37.2 nM; in experiment [2], 3.3 nM.

In the case of `CC1CN(CCNC(=O)c2ccc(Nc3nc4c(C5=CCN(C(=O)CCC(F)(F)F)CC5)cccn4n3)cc2)CC(C)O1` (centres unmarked) [Example 2-268, N-[2-(2,6-dimethylmorpholin-4-yl)ethyl]-4-[[8-[1-(4,4,4-trifluorobutanoyl)-3,6-dihydro-2H-pyridin-4-yl]-[1,2,4]triazolo[1,5-a]pyridin-2-yl]amino]benzamide], the results for the IC50 in experiment [1] and in experiment [2] were 26.6 nM and 3 nM, respectively.

As to `O=C(NCCCN1CCOCC1)c1ccc(Nc2nc3c(C4=CCN(C(=O)CCC(F)(F)F)CC4)cccn3n2)cc1` [Example 2-271, N-(3-morpholinopropyl)-4-[[8-[1-(4,4,4-trifluorobutanoyl)-3,6-dihydro-2H-pyridin-4-yl]-[1,2,4]triazolo[1,5-a]pyridin-2-yl]amino]benzamide], the IC50 is 15.9 nM in experiment [1] and 5.3 nM in experiment [2].

As for `O=C(CCC(F)(F)F)N1CC=C(c2cccn3nc(Nc4ccc(C(=O)N(Cc5ccccn5)C5CC5)cc4)nc23)CC1` [Example 2-272, N-cyclopropyl-N-(2-pyridylmethyl)-4-[[8-[1-(4,4,4-trifluorobutanoyl)-3,6-dihydro-2H-pyridin-4-yl]-[1,2,4]triazolo[1,5-a]pyridin-2-yl]amino]benzamide], the concentration for half-maximal inhibition (IC50) worked out at 106 nM in experiment [1] and 3.9 nM in experiment [2].

Regarding `CN1CCC(N(C)C(=O)c2ccc(Nc3nc4c(C5=CCN(C(=O)CCC(F)(F)F)CC5)cccn4n3)cc2)CC1` [Example 2-288, N-methyl-N-(1-methyl-4-piperidyl)-4-[[8-[1-(4,4,4-trifluorobutanoyl)-3,6-dihydro-2H-pyridin-4-yl]-[1,2,4]triazolo[1,5-a]pyridin-2-yl]amino]benzamide], the values for the 50% inhibitory concentration (IC50) in experiment [1] and in experiment [2] were 77.7 nM and 12.7 nM, respectively.

Regarding `CC(CN1CCCCC1)NC(=O)c1ccc(Nc2nc3c(C4=CCN(C(=O)CCC(F)(F)F)CC4)cccn3n2)cc1` (centres unmarked) [Example 2-334, N-[1-methyl-2-(1-piperidyl)ethyl]-4-[[8-[1-(4,4,4-trifluorobutanoyl)-3,6-dihydro-2H-pyridin-4-yl]-[1,2,4]triazolo[1,5-a]pyridin-2-yl]amino]benzamide], the figures for the IC50 in experiment [1] and in experiment [2] were 30.7 nM and 4.3 nM, respectively.

In the case of `O=C(CCC(F)(F)F)N1CC=C(c2cccn3nc(Nc4ccc(C(=O)N5CCC(c6ccncc6)C5)cc4)nc23)CC1` (centres unmarked) [Example 2-338, 4,4,4-trifluoro-1-[4-[2-[4-[3-(4-pyridyl)pyrrolidine-1-carbonyl]anilino]-[1,2,4]triazolo[1,5-a]pyridin-8-yl]-3,6-dihydro-2H-pyridin-1-yl]butan-1-one], the IC50 in experiment [1] came out at 23.4 nM; in experiment [2] it was 3.3 nM.

With `O=C(NCCc1ccncc1)c1ccc(Nc2nc3c(C4=CCN(C(=O)CCC(F)(F)F)CC4)cccn3n2)cc1` [Example 2-343, N-[2-(4-pyridyl)ethyl]-4-[[8-[1-(4,4,4-trifluorobutanoyl)-3,6-dihydro-2H-pyridin-4-yl]-[1,2,4]triazolo[1,5-a]pyridin-2-yl]amino]benzamide], the figures for the IC50 in experiment [1] and in experiment [2] were 38.3 nM and 4.6 nM, respectively.

A word on the IC50: it is the concentration that inhibits the measured activity by half.
